Laboratory results reported in paper PMC4226669, “Anti-cancer potency of tasquinimod is enhanced via albumin-binding facilitating increased uptake in the tumor microenvironment” (Oncotarget, 2014).

Key:
[1] = biological target: human serum albumin (HSA) (Homo sapiens, UniProt P02768); assay: Reversibility of albumin binding (dialysis against drug free HSA); details: after 4 hours of dialysis, pH 7.4
Protocol: In additional studies, 200 μg (i.e., 3nmol) of human serum albumin (HSA) was incubated with 400 pmoles of ^14C-labeled tasquinimod at pH 7.4 so that 50% of the drug is protein bound. This solution was then placed in a dialysis chamber opposite an equal volume of a solution containing 8 mg (i.e., 120 nmoles) of drug free HSA at pH 7.4 separated by a membrane which is permeable to unbound free tasquinimod, but impermeable to albumin. The 8 mg of HSA in the initial drug free side was chosen because this amount of albumin can bind 98% of the drug when exposed to 400 pmoles of tasquinimod.

[2] = Drug binding in 10% FBS supplemented media; assay type: in vitro ADME, bovine; details: 1 μM in 10% FBS supplemented media
Source text: (§1) Since tasquinimod binds to both S100A9 and HDAC4 proteins with high affinities and since S100A9 has both an extracellular and intracellular location while HDAC4 in prostate cancer cells is in the cell nucleus, it is important to evaluate whether tasquinimod is capable of entering cells or whether it only associates with extracellular plasma membrane components. To resolve this question, an in vitro approach was taken using three human prostate cancer cells (i.e., CWR-22Rv1, LAPC-4, and LNCaP) and human umbilical vein endothelial (HUVEC) cells. When 1 μM tasquinimod is added to 10% fetal bovine serum (FBS) supplemented media, there is sufficient albumin to bind 80% of the drug so that the protein-free concentration of tasquinimod in such media is only 0.2 μM. Preliminary studies documented that even after 48 hours of exposure of HUVEC and each of the 3 prostate cancer cell lines to 1 μM at confluent cell density, there was < 15% metabolism of the parental tasquinimod drug with the major metabolite being the O-demethylated quinoline compound.

[3] = tested on: HUVEC and CWR-22Rv1, LAPC-4, LNCaP cells; assay: In vitro cell metabolism in HUVEC and 3 prostate cancer cell lines; assay type: in vitro ADME, human; details: 48 hours, 1 μM, confluent cell density
Source text: as §1
For in vitro studies, cells were incubated with 1μM ^14C-labeled tasquinimod for indicated time period and then the media and cells or cell nuclei separately harvested, deproteinated with acetonitrile, and metabolites separated by HPLC and quantitated as described above.

mouse albumin = biological target: T1, mouse albumin (Mus musculus, UniProt P07724); assay: Equilibrium dialysis binding to mouse albumin; details: pH 7.4, equilibrium dialysis, read-out: equilibrium dissociation constant (Kd)
T1 construct: purchased Sigma
T1 sequence (P07724 25-608): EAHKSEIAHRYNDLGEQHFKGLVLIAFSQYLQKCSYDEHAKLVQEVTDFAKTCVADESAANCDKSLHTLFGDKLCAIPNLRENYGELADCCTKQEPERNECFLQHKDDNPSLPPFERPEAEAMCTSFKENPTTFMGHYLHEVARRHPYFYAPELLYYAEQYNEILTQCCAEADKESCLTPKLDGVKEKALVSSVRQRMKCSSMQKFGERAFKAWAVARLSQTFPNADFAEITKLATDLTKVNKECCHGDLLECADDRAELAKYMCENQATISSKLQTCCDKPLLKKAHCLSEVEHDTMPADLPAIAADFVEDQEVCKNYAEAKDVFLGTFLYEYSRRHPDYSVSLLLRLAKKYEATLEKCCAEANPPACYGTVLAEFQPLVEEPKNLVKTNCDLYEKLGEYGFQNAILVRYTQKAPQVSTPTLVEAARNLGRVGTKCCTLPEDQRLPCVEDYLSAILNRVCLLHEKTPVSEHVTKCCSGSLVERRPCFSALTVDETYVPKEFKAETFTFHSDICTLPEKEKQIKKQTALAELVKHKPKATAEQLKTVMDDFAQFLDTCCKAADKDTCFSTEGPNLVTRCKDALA
Protocol: To determine whether albumin is the tasquinimod binding protein in plasma, albumin was removed from human plasma using an albumin depletion kit (Thermo Scientific cat # 85160). The albumin depleted plasma was then tested for its protein binding as described above. The dissociation constant (kd) for tasquinimod binding was determined based upon equilibrium dialysis of a mixture of 4mg/ml of the species (i.e., human, bovine, and mouse) specific albumin obtained from Sigma with 2μM of ^14C-labeled tasquinimod in PBS pH 7.4 buffer using a 96-well equilibrium dialyzer™ (Harvard Apparatus, Holliston,MA).

[4] = tested on: CWR-22Rv1 human prostate cancer cells; assay: Plasma membrane associated vs nuclear drug uptake in CWR-22Rv1 cells; assay type: cell-based
Protocol: Based upon these preliminary validation, cells were incubated in 10% fetal bovine serum (FBS) supplemented media containing 1μM ^14C-labeled tasquinimod for <10 minutes. When these cells are rapidly (< 20sec) separated from the media by vacuum filtration onto glass microfiber filter and the filters rapidly (< 20sec) washed, radiolabeled drug is retained by the washed cells and this radioactivity can be used to calculate the total cell associated concentration of drug (CAt). If instead after the washes, media are added above the filters and allowed to remain for a 15 minutes “wash out” period before being vacuumed off and subsequently rapidly (< 20sec) washed with drug free media, […]. […] Thus, total plasma membrane associated drug concentration (PMt) is determined by subtracting the ICt from the CAt value.
To determine the total nuclear concentration of drug (Nt), a modified protocol was needed to allow the rapid lyses of cells and rapid isolation of cell nuclei by differential centrifugation. This could not be accomplished using the usual method of detergent lyses because detergents extract bound drug due to its lipophilicity. Therefore, a detergent free protocol using nitrogen cavitation was developed to rapidly lyse cells and allow the rapid isolation of nuclei via differential centrifugation. Using this cavitation protocol, it was documented that within 1 hour, total nuclear drug concentration (Nt) equals that of the protein-free drug concentration in the media (i.e., 0.2 μM), and that after 4 hours equals PMt (i.e., see Figure 3B, right panel for representative results for the CWR-22Rv1 cells). From 8 hours onward, Nt is more than 10 fold higher than the free and 2 fold higher than the total drug concentration in the media, Figure 3B, right panel. For example at 24 hours post exposure to 1 μM tasquinimod in 10% FBS containing media, the Nt is 2.4 ± 0.3 μM, Figure 3B, right panel. At this 24 hours period, total radioactive drug in isolated nuclei from all 3 prostate cancer lines, as well as HUVEC cells (i.e., nuclear concentration in these 4 lines ranged from 2.2-3.1 μM) was extracted with acetonitrile and the extracts analyzed by HPLC. […] To resolve this, nuclear uptake was determined 24 hours post exposure to 1 μM tasquinimod in serum free media. These studies again documented that nuclear tasquinimod concentration in these 4 cell lines ranged from 2.5-3.5 μM documenting that binding to albumin is not required for cell uptake.
A rapid filtration method was developed and validated to measures the kinetics of tasquinimod cell uptake on a series of human cell lines. To do this, exponentially growing cells in a tissue culture flask are trypsinized, and the number of single cells counted and their average diameter determined electronically using Cellometer AutoT4 (Nexcelom, Lawrence, MA). Then multiple replicates (N=3-6) of 10^7 cells per time point were incubated from 5 minutes to 48 hours. at 37°C in 1ml of tissue culture media containing 10% fetal bovine serum (FBS) plus 1μM ^14C-labeled tasquinimod. The cells in each replicate incubation were then rapidly separated from the tasquinimod containing media by vacuum filtration onto a 24mm Whatman GF/C glass microfiber filter (GE Healthcare Sciences, Piscataway, NJ) using a Millipore 1225 sampling manifold (Millipore, Billerica MA). The filters are then rapidly washed and filtered (<20 seconds per wash) 3 times with 2mls of drug free FBS containing tissue culture media. Half of the replicate filters are then dried overnight and counted for determination of the total cell associated amount of drug (i.e., plasma membrane associated plus intracellular uptake). To the remaining half of the replicate filters, 2mls of drug free FBS containing tissue culture media is added above the filters and allowed to remain there for 15 minutes before being filtered off. […]

Sequence of human serum albumin (HSA) (P02768 25-609): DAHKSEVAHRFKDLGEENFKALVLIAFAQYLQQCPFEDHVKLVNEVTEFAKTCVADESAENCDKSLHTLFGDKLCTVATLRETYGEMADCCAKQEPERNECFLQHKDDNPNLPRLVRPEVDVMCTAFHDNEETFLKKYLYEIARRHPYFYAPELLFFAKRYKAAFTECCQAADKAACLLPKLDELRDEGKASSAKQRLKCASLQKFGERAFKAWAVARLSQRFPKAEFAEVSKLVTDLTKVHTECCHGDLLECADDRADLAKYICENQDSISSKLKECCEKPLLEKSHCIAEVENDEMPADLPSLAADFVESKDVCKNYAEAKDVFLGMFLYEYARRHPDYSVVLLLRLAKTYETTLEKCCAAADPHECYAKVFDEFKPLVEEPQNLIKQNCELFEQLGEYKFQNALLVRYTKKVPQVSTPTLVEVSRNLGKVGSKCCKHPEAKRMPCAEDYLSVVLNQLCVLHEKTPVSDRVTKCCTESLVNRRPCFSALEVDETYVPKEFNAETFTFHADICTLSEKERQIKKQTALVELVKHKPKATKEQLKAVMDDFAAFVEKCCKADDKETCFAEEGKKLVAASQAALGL

- initial protein bound tasquinimod released [1]: 65 ± 9%
- drug bound by albumin in media [2]: 80%
- protein-free concentration in media [2]: 0.2 µM
- metabolism of the parental drug [3]: < 15%
- Kd (mouse albumin): 16 ± 3 µM
- time to steady state PMt ([4]; 1 μM in 10% FBS media): 5 to 10 min
- total plasma membrane associated drug concentration (PMt), steady state ([4]; 1 μM in 10% FBS media, maintained to 48 hours): ~ 1 μM
- total nuclear drug concentration (Nt) ([4]; 24 hours post exposure to 1 μM in 10% FBS containing media): 2.4 ± 0.3 µM
- Nt relative to free drug concentration in the media ([4]; from 8 hours onward): more than 10 fold
- Nt relative to total drug concentration in the media ([4]; from 8 hours onward): > 2 fold
- total nuclear drug concentration (Nt) ([4]; within 1 hour, 1 μM in 10% FBS media): 0.2 µM
SMILES: COc1cccc2c1c(O)c(C(=O)N(C)c1ccc(C(F)(F)F)cc1)c(=O)n2C [Tasquinimod]
